Source: ChEMBL document CHEMBL1240316, “An oxidation-sensing mechanism is used by the global regulator MgrA in Staphylococcus aureus” (2006)
Active and inactive are the calls of the source. The rule behind the calls is not given here.

Tests used:
Staphylococcus aureus [1] = test: Antimicrobial activity against Staphylococcus aureus expressing mgrA C12S mutant gene assessed as visible growth at 0.65 ug/ml after 24 hrs in presence of 20 uM paraquat; assay type: functional, organism-based
Staphylococcus aureus [2] = test: Antimicrobial activity against Staphylococcus aureus expressing mgrA C12S mutant gene assessed as visible growth at 0.75 ug/ml after 24 hrs; assay type: functional, organism-based
Staphylococcus aureus [3] = test: Antimicrobial activity against Staphylococcus aureus assessed as visible growth at 0.35 ug/ml after 24 hrs; assay type: functional, organism-based
Staphylococcus aureus [4] = test: Antimicrobial activity against Staphylococcus aureus assessed as visible growth at 0.75 ug/ml after 24 hrs; assay type: functional, organism-based
Staphylococcus aureus [5] = test: Antimicrobial activity against Staphylococcus aureus expressing mgrA C12S mutant gene harboring Pyj335-His-mgrA assessed as visible growth at 0.65 ug/ml after 24 hrs; assay type: functional, organism-based
Staphylococcus aureus [6] = test: Antimicrobial activity against Staphylococcus aureus expressing mgrA C12S mutant gene assessed as visible growth at 0.45 ug/ml after 24 hrs; assay type: functional, organism-based
Staphylococcus aureus [7] = test: Antimicrobial activity against Staphylococcus aureus assessed as visible growth at 0.25 ug/ml after 24 hrs in presence of 20 uM paraquat; assay type: functional, organism-based
Staphylococcus aureus [8] = test: Antimicrobial activity against Staphylococcus aureus expressing mgrA C12S mutant gene harboring Pyj335-His-mgrA assessed as visible growth at 0.55 ug/ml after 24 hrs; assay type: functional, organism-based
Staphylococcus aureus [9] = test: Antimicrobial activity against Staphylococcus aureus expressing mgrA C12S mutant gene assessed as visible growth at 0.35 ug/ml after 24 hrs; assay type: functional, organism-based
Staphylococcus aureus [10] = test: Antimicrobial activity against Staphylococcus aureus expressing mgrA C12S mutant gene harboring plasmid Pyj335 assessed as visible growth at 0.65 ug/ml after 24 hrs; assay type: functional, organism-based
Staphylococcus aureus [11] = test: Antimicrobial activity against Staphylococcus aureus expressing mgrA C12S mutant gene harboring Pyj335-His-mgrA assessed as visible growth at 0.35 ug/ml after 24 hrs in presence of 20 uM paraquat; assay type: functional, organism-based
Staphylococcus aureus [12] = test: Antimicrobial activity against Staphylococcus aureus expressing mgrA C12S mutant gene assessed as visible growth at 0.35 ug/ml after 24 hrs in presence of 20 uM paraquat; assay type: functional, organism-based
Staphylococcus aureus [13] = test: Antimicrobial activity against Staphylococcus aureus assessed as visible growth at 0.20 ug/ml after 24 hrs in presence of 25 uM paraquat; assay type: functional, organism-based
Staphylococcus aureus [14] = test: Antimicrobial activity against Staphylococcus aureus assessed as visible growth at 0.45 ug/ml after 24 hrs in presence of 20 uM paraquat; assay type: functional, organism-based
Staphylococcus aureus [15] = test: Antimicrobial activity against Staphylococcus aureus expressing mgrA C12S mutant gene harboring plasmid Pyj335 assessed as visible growth at 0.45 ug/ml after 24 hrs in presence of 20 uM paraquat; assay type: functional, organism-based
Staphylococcus aureus [16] = test: Antimicrobial activity against Staphylococcus aureus expressing mgrA C12S mutant gene harboring plasmid Pyj335 assessed as visible growth at 0.75 ug/ml after 24 hrs; assay type: functional, organism-based
Staphylococcus aureus [17] = test: Antimicrobial activity against Staphylococcus aureus assessed as visible growth at 2.2 ug/ml after 24 hrs in presence of 20 uM paraquat; assay type: functional, organism-based
Staphylococcus aureus [18] = test: Antimicrobial activity against Staphylococcus aureus expressing mgrA C12S mutant gene harboring Pyj335-His-mgrA assessed as visible growth at 1.1 ug/ml after 24 hrs in presence of 25 uM paraquat; assay type: functional, organism-based
Staphylococcus aureus [19] = test: Antimicrobial activity against Staphylococcus aureus assessed as visible growth at 1.1 ug/ml after 24 hrs in presence of 25 uM paraquat; assay type: functional, organism-based
Staphylococcus aureus [20] = test: Antimicrobial activity against Staphylococcus aureus expressing mgrA C12S mutant gene harboring plasmid Pyj335-His-mgrA assessed as visible growth at 1.1 ug/ml after 24 hrs in presence of 100 uM hydrogen peroxide; assay type: functional, organism-based
Staphylococcus aureus [21] = test: Antimicrobial activity against Staphylococcus aureus assessed as visible growth at 1 ug/ml after 24 hrs; assay type: functional, organism-based
Staphylococcus aureus [22] = test: Antimicrobial activity against Staphylococcus aureus assessed as visible growth at 0.6 ug/ml after 24 hrs; assay type: functional, organism-based
Staphylococcus aureus [23] = test: Antimicrobial activity against Staphylococcus aureus expressing mgrA C12S mutant gene assessed as visible growth at 0.6 ug/ml after 24 hrs in presence of 20 uM paraquat; assay type: functional, organism-based
Staphylococcus aureus [24] = test: Antimicrobial activity against Staphylococcus aureus expressing mgrA C12S mutant gene harboring Pyj335-His-mgrA assessed as visible growth at 1.8 ug/ml after 24 hrs; assay type: functional, organism-based
Staphylococcus aureus [25] = test: Antimicrobial activity against Staphylococcus aureus expressing mgrA C12S mutant gene harboring Pyj335-His-mgrA assessed as visible growth at 1 ug/ml after 24 hrs in presence of 20 uM paraquat; assay type: functional, organism-based
Staphylococcus aureus [26] = test: Antimicrobial activity against Staphylococcus aureus expressing mgrA C12S mutant gene harboring Pyj335-His-mgrA assessed as visible growth at 1.4 ug/ml after 24 hrs; assay type: functional, organism-based
Staphylococcus aureus [27] = test: Antimicrobial activity against Staphylococcus aureus expressing mgrA C12S mutant gene assessed as visible growth at 1.1 ug/ml after 24 hrs in presence of 25 uM paraquat; assay type: functional, organism-based
Staphylococcus aureus [28] = test: Antimicrobial activity against Staphylococcus aureus expressing mgrA C12S mutant gene harboring plasmid Pyj335 assessed as visible growth at 1.1 ug/ml after 24 hrs in presence of 25 uM paraquat; assay type: functional, organism-based
Staphylococcus aureus [29] = test: Antimicrobial activity against Staphylococcus aureus assessed as visible growth at 1.8 ug/ml after 24 hrs in presence of 20 uM paraquat; assay type: functional, organism-based
Staphylococcus aureus [30] = test: Antimicrobial activity against Staphylococcus aureus expressing mgrA C12S mutant gene assessed as visible growth at 2.2 ug/ml after 24 hrs; assay type: functional, organism-based
Staphylococcus aureus [31] = test: Antimicrobial activity against Staphylococcus aureus expressing mgrA C12S mutant gene harboring plasmid Pyj335-His-mgrA assessed as visible growth at 1.8 ug/ml after 24 hrs in presence of 20 uM paraquat; assay type: functional, organism-based
Staphylococcus aureus [32] = test: Antimicrobial activity against Staphylococcus aureus expressing mgrA C12S mutant gene assessed as visible growth at 1.1 ug/ml after 24 hrs; assay type: functional, organism-based
Staphylococcus aureus [33] = test: Antimicrobial activity against Staphylococcus aureus expressing mgrA C12S mutant gene harboring plasmid Pyj335 assessed as visible growth at 1.4 ug/ml after 24 hrs in presence of 20 uM paraquat; assay type: functional, organism-based
Staphylococcus aureus [34] = test: Antimicrobial activity against Staphylococcus aureus assessed as visible growth at 2.6 ug/ml after 24 hrs; assay type: functional, organism-based
Staphylococcus aureus [35] = test: Antimicrobial activity against Staphylococcus aureus expressing mgrA C12S mutant gene harboring Pyj335-His-mgrA assessed as visible growth at 1.4 ug/ml after 24 hrs in presence of 20 uM paraquat; assay type: functional, organism-based
Staphylococcus aureus [36] = test: Antimicrobial activity against Staphylococcus aureus expressing mgrA C12S mutant gene assessed as visible growth at 1.4 ug/ml after 24 hrs in presence of 20 uM paraquat; assay type: functional, organism-based
Staphylococcus aureus [37] = test: Antimicrobial activity against Staphylococcus aureus assessed as visible growth at 1 ug/ml after 24 hrs in presence of 20 uM paraquat; assay type: functional, organism-based
Staphylococcus aureus [38] = test: Antimicrobial activity against Staphylococcus aureus expressing mgrA C12S mutant gene harboring plasmid Pyj335 assessed as visible growth at 1.4 ug/ml after 24 hrs; assay type: functional, organism-based
Staphylococcus aureus [39] = test: Antimicrobial activity against Staphylococcus aureus expressing mgrAC12S mutant gene harboring plasmid Pyj335-His-mgrA C12S assessed as highest concentration at which growth was visible after 24 hrs; assay type: functional
Staphylococcus aureus [40] = test: Antimicrobial activity against Staphylococcus aureus expressing mgrA C12S mutant gene assessed as visible growth at 2.2 ug/ml after 24 hrs in presence of 20 uM paraquat; assay type: functional, organism-based

With `O=C(O)c1cn(C2CC2)c2cc(N3CCNCC3)c(F)cc2c1=O` [CIPROFLOXACIN] the Activity (Staphylococcus aureus [1]) was “inactive”, the Activity (Staphylococcus aureus [2]) was “Active” and the Activity (Staphylococcus aureus [3]) was “Active”. The Activity (Staphylococcus aureus [4]) was “Active”, the Activity (Staphylococcus aureus [5]) was “Active” and the Activity (Staphylococcus aureus [6]) was “inactive”. For the same compound, the Activity (Staphylococcus aureus [7]) was “inactive”, the Activity (Staphylococcus aureus [8]) was “Active” and the Activity (Staphylococcus aureus [9]) was “inactive”. The Activity (Staphylococcus aureus [10]) was “inactive”, the Activity (Staphylococcus aureus [11]) was “inactive” and the Activity (Staphylococcus aureus [12]) was “inactive”. For the same compound, the Activity (Staphylococcus aureus [13]) was “Active”, the Activity (Staphylococcus aureus [14]) was “inactive” and the Activity (Staphylococcus aureus [15]) was “inactive”. For the same compound, the Activity (Staphylococcus aureus [16]) was “Active”.
In the case of `CN[C@H](CC(C)C)C(=O)N[C@H]1C(=O)N[C@@H](CC(N)=O)C(=O)N[C@H]2C(=O)N[C@H]3C(=O)N[C@H](C(=O)N[C@H](C(=O)O)c4cc(O)cc(O)c4-c4cc3ccc4O)[C@H](O)c3ccc(c(Cl)c3)Oc3cc2cc(c3O[C@@H]2O[C@H](CO)[C@@H](O)[C@H](O)[C@H]2O[C@H]2C[C@](C)(N)[C@H](O)[C@H](C)O2)Oc2ccc(cc2Cl)[C@H]1O` [VANCOMYCIN], the Activity (Staphylococcus aureus [17]) is reported as “Active”, the Activity (Staphylococcus aureus [18]) is reported as “Active” and the Activity (Staphylococcus aureus [19]) is reported as “Active”. For the same compound, the Activity (Staphylococcus aureus [20]) was “Active”, the Activity (Staphylococcus aureus [21]) was “inactive” and the Activity (Staphylococcus aureus [22]) was “inactive”. For the same compound, the Activity (Staphylococcus aureus [23]) was “inactive”, the Activity (Staphylococcus aureus [24]) was “Active” and the Activity (Staphylococcus aureus [25]) was “inactive”. For the same compound, the Activity (Staphylococcus aureus [26]) was “Active”, the Activity (Staphylococcus aureus [27]) was “inactive” and the Activity (Staphylococcus aureus [28]) was “inactive”. The Activity (Staphylococcus aureus [29]) was “Active”, the Activity (Staphylococcus aureus [30]) was “inactive” and the Activity (Staphylococcus aureus [31]) was “inactive”. For the same compound, the Activity (Staphylococcus aureus [32]) was “inactive”, the Activity (Staphylococcus aureus [33]) was “inactive” and the Activity (Staphylococcus aureus [34]) was “Active”. For the same compound, the Activity (Staphylococcus aureus [35]) was “inactive”, the Activity (Staphylococcus aureus [36]) was “inactive” and the Activity (Staphylococcus aureus [37]) was “inactive”. The Activity (Staphylococcus aureus [38]) was “inactive”, the Activity (Staphylococcus aureus [39]) was 1 µg/mL and the Activity (Staphylococcus aureus [40]) was “inactive”.
